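96-well plates; 48 h exposure; 5 concentrations. Endpoints by linear interpolation between flanking doses. Not reached: highest tested concentration assigned. Abbreviation: GI50, concentration required for 50% inhibition of growth. TGI is the concentration that stops growth completely.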
How the values were obtained:
Assay in all cases: NCI anticancer screen, dose series, 48 h
786-0 renal = tested on: 786-0 renal
A498 renal = tested on: A498 renal
A549 NSCLC = tested on: A549 NSCLC
ACHN renal = tested on: ACHN renal
BT-549 breast = tested on: BT-549 breast
CAKI-1 renal = tested on: CAKI-1 renal
CCRF-CEM leukemia = tested on: CCRF-CEM leukemia
COLO 205 colon = tested on: COLO 205 colon
DU-145 prostate = tested on: DU-145 prostate
EKVX NSCLC = tested on: EKVX NSCLC
HCC-2998 colon = tested on: HCC-2998 colon
HCT-116 colon = tested on: HCT-116 colon
HCT-15 colon = tested on: HCT-15 colon
HOP-62 NSCLC = tested on: HOP-62 NSCLC
HOP-92 NSCLC = tested on: HOP-92 NSCLC
HS 578T breast = tested on: HS 578T breast
HT29 colon = tested on: HT29 colon
IGROV1 ovarian = tested on: IGROV1 ovarian
K-562 leukemia = tested on: K-562 leukemia
KM12 colon = tested on: KM12 colon
LOX IMVI melanoma = tested on: LOX IMVI melanoma
M14 melanoma = tested on: M14 melanoma
MALME-3M melanoma = tested on: MALME-3M melanoma
MCF7 breast = tested on: MCF7 breast
MDA-MB-231 breast = tested on: MDA-MB-231 breast
MDA-MB-435 = tested on: MDA-MB-435
MDA-MB-468 breast = tested on: MDA-MB-468 breast
MOLT-4 leukemia = tested on: MOLT-4 leukemia
NCI-H226 lung = tested on: NCI-H226 lung
NCI-H23 lung = tested on: NCI-H23 lung
NCI-H460 lung = tested on: NCI-H460 lung
NCI-H522 lung = tested on: NCI-H522 lung
OVCAR-3 ovarian = tested on: OVCAR-3 ovarian
OVCAR-4 ovarian = tested on: OVCAR-4 ovarian
OVCAR-5 ovarian = tested on: OVCAR-5 ovarian
OVCAR-8 ovarian = tested on: OVCAR-8 ovarian
PC-3 prostate = tested on: PC-3 prostate
RPMI-8226 leukemia = tested on: RPMI-8226 leukemia
RXF 393 renal = tested on: RXF 393 renal
SF-268 CNS = tested on: SF-268 CNS
SF-295 CNS = tested on: SF-295 CNS
SF-539 CNS = tested on: SF-539 CNS
SK-MEL-2 melanoma = tested on: SK-MEL-2 melanoma
SK-MEL-28 melanoma = tested on: SK-MEL-28 melanoma
SK-MEL-5 melanoma = tested on: SK-MEL-5 melanoma
SK-OV-3 ovarian = tested on: SK-OV-3 ovarian
SN12C renal = tested on: SN12C renal
SNB-19 CNS = tested on: SNB-19 CNS
SNB-75 CNS = tested on: SNB-75 CNS
SR leukemia = tested on: SR leukemia
SW-620 colon = tested on: SW-620 colon
T-47D breast = tested on: T-47D breast
TK-10 renal = tested on: TK-10 renal
U251 CNS = tested on: U251 CNS
UACC-257 melanoma = tested on: UACC-257 melanoma
UACC-62 melanoma = tested on: UACC-62 melanoma
UO-31 renal = tested on: UO-31 renal
HL-60(TB) leukemia = tested on: HL-60(TB) leukemia

## O=c1oc2ccc(-c3ccc(F)cc3F)cc2c(=O)n1-c1ccc(F)c(Cl)c1
786-0 renal
  GI50: 2.38 µM
  TGI: 7.2 µM
A498 renal
  GI50: 2.25 µM
  TGI: 6.36 µM
A549 NSCLC
  GI50: 2.87 µM
  TGI: 15 µM
ACHN renal
  GI50: 3.06 µM
  TGI: 10.1 µM
BT-549 breast
  GI50: 1.8 µM
  TGI: 4.14 µM
CAKI-1 renal
  GI50: 1.72 µM
  TGI: 5.11 µM
CCRF-CEM leukemia
  GI50: 3.69 µM
  TGI: 35.4 µM
COLO 205 colon
  GI50: 12.3 µM
  TGI: 26.2 µM
DU-145 prostate
  GI50: 4.12 µM
  TGI: 25.3 µM
EKVX NSCLC
  GI50: 3 µM
  TGI: 21.3 µM
HCC-2998 colon
  GI50: 3.42 µM
  TGI: 12.4 µM
HCT-116 colon
  GI50: 3.01 µM
  TGI: 10.1 µM
HCT-15 colon
  GI50: 3.17 µM
  TGI: 14.9 µM
HOP-62 NSCLC
  GI50: 2.38 µM
  TGI: 6.66 µM
HOP-92 NSCLC
  GI50: 0.808 µM
  TGI: 4.78 µM
HS 578T breast
  GI50: 2.42 µM
  TGI: 7.45 µM
HT29 colon
  GI50: 9.51 µM
  TGI: 27.3 µM
IGROV1 ovarian
  GI50: 3.49 µM
  TGI: 17.4 µM
K-562 leukemia
  GI50: 2.12 µM
  TGI: > 100 µM
KM12 colon
  GI50: 2.97 µM
  TGI: 9.62 µM
LOX IMVI melanoma
  GI50: 3.69 µM
  TGI: 12.2 µM
M14 melanoma
  GI50: 3.28 µM
  TGI: 11.1 µM
MALME-3M melanoma
  GI50: 2.03 µM
  TGI: 5.65 µM
MCF7 breast
  GI50: 3.27 µM
  TGI: 56.9 µM
MDA-MB-231 breast
  GI50: 1.37 µM
  TGI: 3.77 µM
MDA-MB-435
  GI50: 2.58 µM
  TGI: 7.95 µM
MDA-MB-468 breast
  GI50: 2.25 µM
  TGI: 5.84 µM
MOLT-4 leukemia
  GI50: 3.83 µM
  TGI: 45.1 µM
NCI-H226 lung
  GI50: 1.98 µM
  TGI: 7.01 µM
NCI-H23 lung
  GI50: 2.21 µM
  TGI: 6.45 µM
NCI-H460 lung
  GI50: 2.93 µM
  TGI: 9.93 µM
NCI-H522 lung
  GI50: 1.85 µM
  TGI: 6.39 µM
OVCAR-3 ovarian
  GI50: 3.13 µM
  TGI: 11.9 µM
OVCAR-4 ovarian
  GI50: 3.24 µM
  TGI: 39.6 µM
OVCAR-5 ovarian
  GI50: 3.68 µM
  TGI: 20.6 µM
OVCAR-8 ovarian
  GI50: 3.55 µM
  TGI: 25.4 µM
PC-3 prostate
  GI50: 3.18 µM
  TGI: 13.7 µM
RPMI-8226 leukemia
  GI50: 1.62 µM
  TGI: 6.62 µM
RXF 393 renal
  GI50: 1.77 µM
  TGI: 5.67 µM
SF-268 CNS
  GI50: 2.69 µM
  TGI: 11.6 µM
SF-295 CNS
  GI50: 2.68 µM
  TGI: 7.72 µM
SF-539 CNS
  GI50: 3.16 µM
  TGI: 10.4 µM
SK-MEL-2 melanoma
  GI50: 2.09 µM
  TGI: 4.56 µM
SK-MEL-28 melanoma
  GI50: 3.29 µM
  TGI: 12.7 µM
SK-MEL-5 melanoma
  GI50: 1.46 µM
  TGI: 3.03 µM
SK-OV-3 ovarian
  GI50: 2.41 µM
  TGI: 6.33 µM
SN12C renal
  GI50: 2.16 µM
  TGI: 8.67 µM
SNB-19 CNS
  GI50: 3.79 µM
  TGI: 23.8 µM
SNB-75 CNS
  GI50: 1.59 µM
  TGI: 5.77 µM
SR leukemia
  GI50: 2.96 µM
  TGI: 20.5 µM
SW-620 colon
  GI50: 3.43 µM
  TGI: 13 µM
T-47D breast
  GI50: 2.28 µM
  TGI: 6.71 µM
TK-10 renal
  GI50: 3.11 µM
  TGI: 9.19 µM
U251 CNS
  GI50: 2.9 µM
  TGI: 11.7 µM
UACC-257 melanoma
  GI50: 2.07 µM
  TGI: 6.51 µM
UACC-62 melanoma
  GI50: 1.88 µM
  TGI: 5.01 µM
UO-31 renal
  GI50: 2.4 µM
  TGI: 9.98 µM

## O=C(/C=C/c1ccco1)c1nc2ccccc2n1Cc1ccc(Br)cc1
786-0 renal
  GI50: 21.3 µM
  TGI: 76.4 µM
A498 renal
  GI50: 28.7 µM
  TGI: 65.3 µM
A549 NSCLC
  GI50: 21.2 µM
  TGI: > 100 µM
ACHN renal
  GI50: 22 µM
  TGI: 69.1 µM
BT-549 breast
  GI50: 13.8 µM
  TGI: 35.7 µM
CAKI-1 renal
  GI50: 14 µM
  TGI: > 100 µM
CCRF-CEM leukemia
  GI50: 12.3 µM
  TGI: > 100 µM
COLO 205 colon
  GI50: 17.6 µM
  TGI: 34.1 µM
DU-145 prostate
  GI50: 21 µM
  TGI: > 100 µM
EKVX NSCLC
  GI50: 26.2 µM
  TGI: > 100 µM
HCC-2998 colon
  GI50: 14.9 µM
  TGI: 28.8 µM
HCT-116 colon
  GI50: 15 µM
  TGI: 61.7 µM
HCT-15 colon
  GI50: 6.96 µM
  TGI: 23.2 µM
HL-60(TB) leukemia
  GI50: 12.7 µM
  TGI: > 100 µM
HOP-62 NSCLC
  GI50: 19.7 µM
  TGI: 49.2 µM
HOP-92 NSCLC
  GI50: 5.77 µM
  TGI: 33.5 µM
HS 578T breast
  GI50: 30.4 µM
  TGI: > 100 µM
HT29 colon
  GI50: 31.1 µM
  TGI: > 100 µM
IGROV1 ovarian
  GI50: 15.6 µM
  TGI: 63.7 µM
K-562 leukemia
  GI50: 10.6 µM
  TGI: > 100 µM
KM12 colon
  GI50: 12.5 µM
  TGI: 34.3 µM
LOX IMVI melanoma
  GI50: 12.2 µM
  TGI: 27.3 µM
M14 melanoma
  GI50: 18.9 µM
  TGI: 38.3 µM
MALME-3M melanoma
  GI50: 16 µM
  TGI: 33.9 µM
MCF7 breast
  GI50: 2.9 µM
  TGI: > 100 µM
MDA-MB-231 breast
  GI50: 14 µM
  TGI: 34.6 µM
MDA-MB-435
  GI50: 15 µM
  TGI: 36.9 µM
MDA-MB-468 breast
  GI50: 7.31 µM
  TGI: 26.9 µM
MOLT-4 leukemia
  GI50: 6.57 µM
  TGI: > 100 µM
NCI-H226 lung
  GI50: 19.3 µM
  TGI: 53 µM
NCI-H23 lung
  GI50: 13.7 µM
  TGI: 42.3 µM
NCI-H460 lung
  GI50: 15.2 µM
  TGI: 38.1 µM
NCI-H522 lung
  GI50: 15.6 µM
  TGI: 38.9 µM
OVCAR-3 ovarian
  GI50: 8.02 µM
  TGI: 30.4 µM
OVCAR-4 ovarian
  GI50: 23.6 µM
  TGI: > 100 µM
OVCAR-5 ovarian
  GI50: 17.9 µM
  TGI: 38.1 µM
OVCAR-8 ovarian
  GI50: 16.6 µM
  TGI: 39.7 µM
PC-3 prostate
  GI50: 23.9 µM
  TGI: > 100 µM
RPMI-8226 leukemia
  GI50: 15.8 µM
  TGI: > 100 µM
RXF 393 renal
  GI50: 9.57 µM
  TGI: 22.1 µM
SF-268 CNS
  GI50: 27.2 µM
  TGI: > 100 µM
SF-295 CNS
  GI50: 16.7 µM
  TGI: 42.1 µM
SF-539 CNS
  GI50: 17.8 µM
  TGI: 35 µM
SK-MEL-2 melanoma
  GI50: 16.3 µM
  TGI: 35.7 µM
SK-MEL-28 melanoma
  GI50: 15.6 µM
  TGI: 32.1 µM
SK-MEL-5 melanoma
  GI50: 14.1 µM
  TGI: 28 µM
SK-OV-3 ovarian
  GI50: 34.5 µM
  TGI: > 100 µM
SN12C renal
  GI50: 19.9 µM
  TGI: 52.5 µM
SNB-19 CNS
  GI50: 14.4 µM
  TGI: 34.7 µM
SNB-75 CNS
  GI50: 13 µM
  TGI: > 100 µM
SR leukemia
  GI50: 9.23 µM
  TGI: > 100 µM
SW-620 colon
  GI50: 12.1 µM
  TGI: 48.4 µM
T-47D breast
  GI50: 6.12 µM
  TGI: > 100 µM
TK-10 renal
  GI50: 32.8 µM
  TGI: > 100 µM
U251 CNS
  GI50: 12 µM
  TGI: 26.8 µM
UACC-257 melanoma
  GI50: 17.4 µM
  TGI: 68.4 µM
UACC-62 melanoma
  GI50: 10.8 µM
  TGI: 26.2 µM
UO-31 renal
  GI50: 11 µM
  TGI: 26.4 µM
